These results are taken from PubChem BioAssay AID1645848.

Molecules are shown by their SMILES. Converted amounts (≈) assume the structure as drawn. Bounds are passed on as bounds.

For the data set the following is noted: buffer; pH 7.4; 6.0 h; 150.0 µM.
As usually defined, the kinetic solubility is solubility judged after dilution from a stock solution rather than from solid. Regarding `FC(F)(F)c1cc(-c2ccc(CNc3nc(-c4ccccc4C(F)(F)F)nc4ccsc34)cc2)ccn1`, the kinetic solubility was less than 1 µg/mL.
`O=C(c1csnn1)N1CCC2(CCCN(C(c3ccccc3)c3ccccc3)C2)CC1` had a solubility (kinetic) of less than 1 µg/mL.
The figure for `O=C(Nc1ccc(Cl)cc1)Nc1ccc(Cl)c(Cl)c1` is less than 1 µg/mL; for `O=C(Nc1cccc(F)c1)c1cc(-c2ccc[nH]2)n[nH]1` it is 1.77 µg/mL (≈ 6.57 µM); for `COc1cc2c(cc1OC)C(C[C@H]1CN(S(=O)(=O)c3cccc(C#N)c3)CC[C@H]1CC(=O)O)=NCC2` it is greater than 76 µg/mL.
Take `NC1CCC(Nc2nc(Nc3ccc(C(=O)N4CCCCC4)cc3)c3ncn(-c4cccc(F)c4)c3n2)CC1` (stereo not given): the kinetic solubility was 57.5 µg/mL (≈ 109 µM).
Molecule `Cc1cc(-c2nnc3n2CCCCC3)c(C)n1-c1cccc(Cl)c1` had a solubility (kinetic) of 36.5 µg/mL (≈ 107 µM).
With `CC(CNC(=O)C1CCN(Cc2cc3ccccc3n2Cc2ccccc2)CC1)c1ccccc1` (stereo not given), the kinetic solubility was determined as 1.05 µg/mL (≈ 2.25 µM).
Turning to `CCn1cc(CNC(=O)c2cc(-c3ccc(C)cc3)nc3ccc(Br)cc23)c(C)n1`, the kinetic solubility was less than 1 µg/mL.
The figure for `CCOC(=O)N1CCN(Cc2nc3c(c(=O)n(C)c(=O)n3C)n2Cc2cccc(C)c2)CC1` is greater than 67 µg/mL; for `CN(C)C(=O)c1cccc(-c2csc(N3CCC(C(N)=O)CC3)n2)c1` it is greater than 53 µg/mL; for `CC(=O)c1c(C)[nH]c(C(=O)Nc2cccc([S+](=O)([O-])N3CC[C@@H](F)C3)c2)c1C` it is 23.3 µg/mL (≈ 57.1 µM).
The figure for `O=S(=O)(c1ccccc1)N1CCN(c2nc(-c3ccc(Br)cc3)cs2)CC1` is 1.23 µg/mL (≈ 2.66 µM); for `CCN1CCN(c2ccc3cc(S(=O)(=O)N4CCOCC4)ccc3n2)CC1` it is greater than 58 µg/mL.
The value for `Cc1noc(C)c1Cc1ccc(C(=O)N2CCc3c(nc4cc(-c5ccccc5)[nH]n4c3=O)C2)o1` was 4.77 µg/mL (≈ 10.2 µM).
In turn, `CCNC(=O)c1ccc(-c2ccc3ncnc(NCC4CCCO4)c3c2)o1` (stereo not given) had a solubility (kinetic) of 25 µg/mL (≈ 68.3 µM).
The figure for `Brc1ccc(-c2csc(N3CCC(c4nn[nH]n4)CC3)n2)cc1` is greater than 58 µg/mL; for `CCn1c(C)c(C(C)=O)c(C)c1C(=O)Nc1cccc([S+](=O)([O-])N(C)C)c1` it is 43.4 µg/mL (≈ 111 µM).
The value for `O=C(Nc1nnc(C2CCCCC2)s1)c1ccc(Br)s1` was less than 1 µg/mL; that for `Cc1cc(N=Nc2ccc(S(=O)(=O)Nc3ccccn3)cc2)c(N)cc1O` was 3.69 µg/mL (≈ 9.63 µM); that for `CC1CC(C)(C)N(C(=O)CN2C(=O)c3ccccc3C2=O)c2ccccc21` (stereo not given) was 7.25 µg/mL (≈ 20 µM).
In turn, `Fc1cc(Nc2nc(-c3ccncc3)nc3ccccc23)ccc1-c1ccncc1` displayed a kinetic solubility of less than 1 µg/mL.
The figure for `CCCc1nnc(NC(=O)c2nc(S(=O)(=O)Cc3ccc(C)cc3)ncc2Cl)s1` is greater than 67 µg/mL; for `Cc1cnc(CNc2nc(-c3cccc(NS(C)(=O)=O)c3)nc3ccccc23)cn1` it is 44 µg/mL (≈ 105 µM).
In turn, `COc1cccc(CNc2ccc(S(=O)(=O)Nc3nc4ccccc4s3)cc2)c1O` returned a solubility (kinetic) of 2.08 µg/mL (≈ 4.72 µM).
Turning to `CN(C)CCNC(=O)c1nc2nc(-c3ccccc3)c(-c3cccc(F)c3)cc2n1C`, the solubility (kinetic) was 51.3 µg/mL (≈ 123 µM).
The figure for `CC(=O)N1CCc2cc(-c3nc(NC(=O)Cc4ccc5c(c4)OCO5)sc3C)ccc21` is less than 1 µg/mL.
The value for `O=C(c1ccccc1)N1CCC(c2nn(-c3ccc(F)cc3)c(=O)[nH]2)CC1` was greater than 54 µg/mL; that for `C/C(=N\NC(N)=S)C1=CCC2C3CC[C@H]4CC(O)CC[C@]4(C)C3CC[C@]12C` (stereo not given in full) was less than 1 µg/mL; that for `CCN(CCCOc1ccc2c(Nc3cc(CC(=O)Nc4cccc(F)c4)[nH]n3)ncnc2c1)CCOP(=O)(O)O` was greater than 87 µg/mL.
The value for `CCCCN(C)C(=O)c1c(C)sc2ccn(CCC)c(=O)c12` was greater than 32 µg/mL; that for `COc1ccc(O)c2c(=O)c3c(OC)cc4c(c3oc12)C1C=COC1O4` (stereo not given) was less than 1 µg/mL.
`COc1cc(Nc2nc(-c3ccncc3)nc3ccccc23)ccc1Cl`: the kinetic solubility is less than 1 µg/mL.
The value for `N#Cc1nc(-c2cccc3ccccc23)oc1NC1COC1` was less than 1 µg/mL; that for `CC[C@H]1CN(C)[C@H]2Cc3c([nH]c4ccccc34)C(=O)C[C@H]1[C@H]2C(=O)OC` was greater than 52 µg/mL; that for `COc1ccc(-c2nc(N3CCOCC3)c3sc(CN(C)c4ncc(C(=O)NO)cn4)cc3n2)cn1` was 5.56 µg/mL (≈ 10.9 µM).
The value for `Nc1ncnc2c1c(-c1ccc(Oc3ccccc3)cc1)cn2C1CCCC1` was less than 1 µg/mL; that for `Fc1ccc(Nc2nc(-c3ccnc(C(F)(F)F)c3)nc3ccccc23)cc1F` was less than 1 µg/mL; that for `COc1cc(Cl)c(C)cc1NC(=O)CSc1ncc(S(=O)(=O)c2ccc(C(C)(C)C)cc2)c(=O)[nH]1` was less than 1 µg/mL.
The value for `Oc1ccc(CN2CC(CNc3ccccc3)C3(C2)CN(c2ccccc2)C3)cc1` (stereo not given) was 1.79 µg/mL (≈ 4.47 µM).
Consider `COc1ccc(-c2cc(-c3cccc4[nH]ncc34)cn3cncc23)cn1`, for which the solubility (kinetic) came to 5.52 µg/mL (≈ 16.2 µM). This solubility kinetic is about 3.1-fold higher than that of the molecule before.
With `O=S(=O)(Nc1nccs1)c1ccc(NCc2cccc(F)c2O)cc1`, the kinetic solubility is greater than 56 µg/mL.
Take `CCOc1ccc(-c2cn3c(n2)sc2cc(C(=O)NCCCN(CC)CC)ccc23)cc1`: the solubility (kinetic) was greater than 67 µg/mL.
Molecule `c1ccc(Nc2cc(-c3ccoc3)ncn2)cc1` showed a kinetic solubility of 16.2 µg/mL (≈ 68.3 µM).
Take `O=C1CCCC2=C1C1(CCCC1)N=C(Nc1nc3ccccc3o1)N2`: the kinetic solubility was less than 1 µg/mL.
The figure for `Cn1cc(Nc2cnccc2C(=O)O)c2cccnc21` is 32.6 µg/mL (≈ 122 µM); for `O=C(Cc1nc2ccc(Cl)cc2[nH]1)Nc1ccc(S(=O)(=O)Nc2nccs2)cc1` it is 4.93 µg/mL (≈ 11 µM); for `CNC(=O)C1=C(C)NC(Nc2nc3ccccc3o2)=NC1c1[nH]ncc1Cl` (stereo not given) it is greater than 57 µg/mL.
As to `Clc1cccc(Nc2nc(-c3ccncc3)nc3ccccc23)c1`, the kinetic solubility was less than 1 µg/mL.
In turn, `Cc1ccc2nc(NC3=NC(c4[nH]ncc4Cl)C4=C(CCCC4=O)N3)oc2c1` (stereo not given) returned a kinetic solubility of less than 1 µg/mL.
The value for `COc1cccc(S(=O)(=O)Nc2cnccc2C(=O)Nc2nc(-c3ccccc3)cs2)c1` was 53.9 µg/mL (≈ 116 µM).
The value for `COC1C(OC(=O)c2ccc(C)[nH]2)C(O)C(Oc2ccc3c(O)c(NC(=O)c4ccc(O)c(CC=C(C)C)c4)c(=O)oc3c2Cl)OC1(C)C` (stereo not given) was greater than 100 µg/mL.
The figure for `Cc1ccc(S(=O)(=O)Nc2ccccc2C(=O)Nc2nc(-c3ccccc3)c(Br)s2)cc1` is less than 1 µg/mL; for `O=C(Nc1ncc(Cc2ccc(C(F)(F)F)cc2)s1)c1ncc(-c2ccccc2)[nH]1` it is less than 1 µg/mL; for `Cc1ccc(S(=O)(=O)Nc2ccccc2C(=O)Nc2cccc(-c3ccccc3)c2)cc1` it is less than 1 µg/mL.
`COC(=O)[C@H](Cc1ccc(O[S+](=O)([O-])c2cccc3cnccc23)cc1)N[S+](=O)([O-])c1ccc2cnccc2c1`: the kinetic solubility was found to be 3.21 µg/mL (≈ 5.55 µM).
The value for `O=S(=O)(Nc1cccc2ccccc12)c1ccc(NCc2cccc(Cl)c2O)cc1` was less than 1 µg/mL; that for `COc1ccc(C2c3c(oc4ccc(Cl)cc4c3=O)C(=O)N2CCCN(C)C)cc1OC` (stereo not given) was greater than 67 µg/mL.
The value for `CN(C)CCNC(=O)c1nc2nc(-c3ccccc3)c(-c3cccc(Cl)c3)cc2n1C` was 66.8 µg/mL (≈ 154 µM).
As to `Cc1cc(C)nc(NC(=S)N2CCN(c3ccc(Cl)cc3[N+](=O)[O-])CC2)c1`, the solubility (kinetic) stood at 3.08 µg/mL (≈ 7.59 µM).
Consider `O=S(=O)(Nc1cccc(C(F)(F)F)c1)c1ccc(NS(=O)(=O)c2ccc3c(c2)OCCO3)cc1`, for which the kinetic solubility was less than 1 µg/mL.
For `O=c1c(-c2cccs2)ccc2n1C[C@H]1C[C@@H]2CN(C2CCOCC2)C1`, the solubility (kinetic) is greater than 79 µg/mL.
The value for `c1ccc(Nc2cc3c(cn2)CN(Cc2cccs2)CCN3)cc1` was 42.8 µg/mL (≈ 127 µM); that for `CC(=O)Nc1cccc(-c2csc(Nc3cc(C)ccn3)n2)c1` was less than 1 µg/mL; that for `c1cc(OCCN2CCCCC2)cc(-c2n[nH]c3ccc(-c4ncn[nH]4)cc23)c1` was greater than 38 µg/mL.
The value for `CCOC(=O)c1ccc(N2C(=O)c3[nH]nc(-c4ccc(OC)cc4)c3C2c2ccc(C)cc2)cc1` (stereo not given) was less than 1 µg/mL; that for `O=C(c1ccc2c(c1)ncn2-c1ccccc1)N1CCCCC1` was greater than 45 µg/mL; that for `O=C(Nc1ncnc2sc3c(c12)CCC3)c1ccco1` was 11.5 µg/mL (≈ 40.4 µM).
The value for `COc1cccc(CNc2ccc(S(=O)(=O)Nc3ccc4ccccc4c3)cc2)c1O` was less than 1 µg/mL; that for `CCC(CC)c1cc([C@H]2CN3CC[C@H]2C[C@@H]3CNS(=O)(=O)c2cccs2)nc(-c2ccncc2)n1` was 52.2 µg/mL (≈ 102 µM); that for `CCOC(=O)N1CCN(Cc2nc3c(c(=O)n(C)c(=O)n3C)n2CCC(C)C)CC1` was greater than 62 µg/mL.
`Cc1ccc(-n2ncc(C(=O)NCCN3CCC(Cc4ccccc4)CC3)c2C2CCN(C(=O)OC(C)(C)C)CC2)cc1` had a kinetic solubility of 23.2 µg/mL (≈ 39.6 µM).
In the case of `Cc1cccc(-n2nc(C)c3c2NC(=O)CSC3c2ccccc2Cl)c1` (stereo not given), the solubility (kinetic) was found to be 2.15 µg/mL (≈ 5.61 µM). This solubility kinetic lies about 11-fold lower than the previous one.
`O=C(Nc1nc(-c2ccccc2)cs1)c1ccncc1NS(=O)(=O)c1ccccc1Cl`: the kinetic solubility turned out to be 20 µg/mL (≈ 42.4 µM).
The value for `Cc1ccc(CNc2ccccc2C(=O)Nc2nc(-c3ccccc3)cs2)cc1` was less than 1 µg/mL; that for `O=[N+]([O-])c1ccc(/C=N/n2c(CO)nc3ccccc32)s1` was less than 1 µg/mL; that for `Cc1cc(NS(=O)(=O)c2ccc(NC(=O)c3oc4ccccc4c3C)cc2)nc(C)n1` was less than 1 µg/mL.
The value for `Clc1ccc(C2(c3ccc(-c4cn[nH]c4)cc3)CCNCC2)cc1` was greater than 50 µg/mL.
The figure for `Cc1noc(C)c1S(=O)(=O)Nc1cnccc1C(=O)Nc1nc(-c2ccccc2)cs1` is greater than 66 µg/mL; for `CCS(=O)(=O)N1CC(CC#N)(n2cc(-c3ncnc4[nH]ccc34)cn2)C1` it is greater than 55 µg/mL.
On to `O=C1Nc2ccc(-c3cccc(C(F)(F)F)c3)cc2C(=O)N2CCN(C(=O)COc3ccccc3)C[C@H]12`, for which the solubility (kinetic) was less than 1 µg/mL.
The figure for `O=[N+]([O-])c1ccc(CNc2ccc([S+](=O)([O-])Nc3nccs3)cc2)c(O)c1` is greater than 60 µg/mL.
The figure for `NC(=O)C1CCN(c2nc(-c3ccc([N+](=O)[O-])cc3)cs2)CC1` is 1.7 µg/mL (≈ 5.1 µM); for `O=C(Nc1ncc(Cc2ccc(C(F)(F)F)cc2)s1)c1cn(-c2ccccc2)cn1` it is less than 1 µg/mL.
`Cc1cc(-c2nnc3n2CCCCC3)c(C)n1-c1ccc(Br)cc1` came in with a solubility (kinetic) of 27.4 µg/mL (≈ 71.1 µM).
